Tests used:
[1] = biological target: Sodium-dependent serotonin transporter (Rattus norvegicus, UniProt P31652)
Histamine H1 receptor = Histamine H1 receptor (Rattus norvegicus, UniProt P31390)
[2] = biological target: T1, Muscarinic acetylcholine receptor M1 (Rattus norvegicus, UniProt P08482)
T1 sequence (P08482 whole entry): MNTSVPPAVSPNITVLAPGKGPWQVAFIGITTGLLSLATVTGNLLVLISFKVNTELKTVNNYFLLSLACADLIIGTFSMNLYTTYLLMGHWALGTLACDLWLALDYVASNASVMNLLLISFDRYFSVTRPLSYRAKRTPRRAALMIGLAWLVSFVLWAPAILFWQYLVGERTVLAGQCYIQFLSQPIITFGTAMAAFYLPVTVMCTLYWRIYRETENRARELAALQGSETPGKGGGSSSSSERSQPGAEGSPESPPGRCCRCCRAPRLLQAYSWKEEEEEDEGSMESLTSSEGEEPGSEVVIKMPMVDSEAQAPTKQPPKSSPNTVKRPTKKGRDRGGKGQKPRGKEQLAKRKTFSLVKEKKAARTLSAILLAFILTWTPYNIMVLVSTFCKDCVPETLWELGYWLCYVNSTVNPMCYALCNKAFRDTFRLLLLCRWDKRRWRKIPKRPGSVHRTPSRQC

[3] = biological target: 5-hydroxytryptamine receptor 2A (Rattus norvegicus, UniProt P14842)
D(2) dopamine receptor = D(2) dopamine receptor (Rattus norvegicus, UniProt P61169)
Chain of D(2) dopamine receptor (P61169 whole entry): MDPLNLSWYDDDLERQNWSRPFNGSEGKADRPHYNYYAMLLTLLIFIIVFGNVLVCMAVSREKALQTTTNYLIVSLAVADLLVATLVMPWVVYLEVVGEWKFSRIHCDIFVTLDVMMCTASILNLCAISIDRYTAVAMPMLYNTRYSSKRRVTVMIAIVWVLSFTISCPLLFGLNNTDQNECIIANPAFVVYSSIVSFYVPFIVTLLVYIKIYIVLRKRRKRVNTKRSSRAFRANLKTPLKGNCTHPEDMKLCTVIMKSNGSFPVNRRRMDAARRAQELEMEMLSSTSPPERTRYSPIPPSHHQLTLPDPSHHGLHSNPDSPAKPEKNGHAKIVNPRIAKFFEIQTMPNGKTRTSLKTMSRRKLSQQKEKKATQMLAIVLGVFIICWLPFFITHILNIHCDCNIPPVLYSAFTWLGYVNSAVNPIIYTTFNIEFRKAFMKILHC

Chain of Histamine H1 receptor (P31390 whole entry): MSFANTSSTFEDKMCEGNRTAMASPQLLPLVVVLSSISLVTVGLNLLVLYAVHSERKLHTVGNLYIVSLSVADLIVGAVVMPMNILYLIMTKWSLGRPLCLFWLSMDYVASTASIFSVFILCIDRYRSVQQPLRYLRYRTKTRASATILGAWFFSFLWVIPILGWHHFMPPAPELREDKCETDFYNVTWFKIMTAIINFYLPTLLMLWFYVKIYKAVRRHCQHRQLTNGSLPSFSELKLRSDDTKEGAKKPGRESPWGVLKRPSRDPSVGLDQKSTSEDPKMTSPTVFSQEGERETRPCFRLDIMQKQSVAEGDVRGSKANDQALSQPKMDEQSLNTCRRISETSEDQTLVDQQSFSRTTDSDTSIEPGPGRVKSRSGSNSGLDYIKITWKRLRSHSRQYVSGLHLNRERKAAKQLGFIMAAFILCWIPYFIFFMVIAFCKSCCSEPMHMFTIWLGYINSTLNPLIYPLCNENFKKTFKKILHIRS
Chain of 5-hydroxytryptamine receptor 2A (P14842 whole entry): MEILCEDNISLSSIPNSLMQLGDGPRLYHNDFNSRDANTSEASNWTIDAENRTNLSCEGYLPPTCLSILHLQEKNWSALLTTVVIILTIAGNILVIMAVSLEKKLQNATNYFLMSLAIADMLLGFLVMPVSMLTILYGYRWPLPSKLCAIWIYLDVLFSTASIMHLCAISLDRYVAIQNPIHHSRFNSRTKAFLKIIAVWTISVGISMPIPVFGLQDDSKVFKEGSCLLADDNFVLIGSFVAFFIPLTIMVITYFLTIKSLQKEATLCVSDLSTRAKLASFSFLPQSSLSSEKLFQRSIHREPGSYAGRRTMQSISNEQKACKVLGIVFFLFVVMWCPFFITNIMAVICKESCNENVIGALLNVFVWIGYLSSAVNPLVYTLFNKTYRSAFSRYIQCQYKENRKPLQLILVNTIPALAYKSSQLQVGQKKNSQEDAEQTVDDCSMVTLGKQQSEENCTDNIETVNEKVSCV
Chain of Sodium-dependent serotonin transporter (P31652 whole entry): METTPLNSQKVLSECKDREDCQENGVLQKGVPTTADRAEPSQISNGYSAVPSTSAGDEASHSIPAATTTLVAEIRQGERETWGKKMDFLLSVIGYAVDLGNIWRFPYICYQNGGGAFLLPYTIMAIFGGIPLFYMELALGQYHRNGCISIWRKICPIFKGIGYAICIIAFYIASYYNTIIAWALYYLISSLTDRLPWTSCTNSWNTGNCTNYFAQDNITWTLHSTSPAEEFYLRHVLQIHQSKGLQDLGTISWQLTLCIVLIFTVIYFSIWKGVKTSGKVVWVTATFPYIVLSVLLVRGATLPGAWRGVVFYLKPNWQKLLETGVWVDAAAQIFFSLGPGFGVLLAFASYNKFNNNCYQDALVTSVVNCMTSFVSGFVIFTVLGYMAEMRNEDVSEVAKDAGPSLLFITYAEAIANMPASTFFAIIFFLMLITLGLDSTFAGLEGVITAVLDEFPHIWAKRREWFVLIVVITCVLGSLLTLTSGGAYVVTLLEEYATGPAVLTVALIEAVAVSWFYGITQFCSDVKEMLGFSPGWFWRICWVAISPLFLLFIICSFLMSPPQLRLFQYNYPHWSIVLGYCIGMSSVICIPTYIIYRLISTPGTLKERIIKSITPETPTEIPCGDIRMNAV

Ki [1] [µM]	Ki (Histamine H1 receptor) [µM]	Ki [2] [µM]	Ki [3] [nM]	Ki (D(2) dopamine receptor) [µM]	Compound
1.9	3.2	2.9	1400	7.6	NC(=NCc1ccccc1)NC(=O)c1nc(Cl)c(N)nc1N [NSC_108107]
7.9	5.6	3.6	400	> 10	N=C(N)NC(=O)c1nc(Cl)c(N2CCCCCC2)nc1N

Compound	Ki [1] [µM]	Ki (Histamine H1 receptor) [µM]	Ki [2] [µM]	Ki [3] [nM]	Ki (D(2) dopamine receptor) [µM]
N=C(N)NC(=O)c1nc(Cl)c(N)nc1N [3,5-diamino-N-carbamimidoyl-6-chloropyrazine-2-carboxamide]		> 10	> 10	> 10000	> 10

— BindingDB's records for doi:10.3109/10799899109064686 (Center For Bio-Pharmaceutical Sciences, 1991)
